Experimental data taken from patent US10683279B2, “Apoptosis signal-regulating kinase 1 inhibitors and methods of use thereof” (Enanta Pharmaceuticals, Inc., priority 2017, dated 2020).

biological target: ASK1 (Homo sapiens (Human), UniProt Q99683); test: ASK1 kinase inhibition, HTRF KinEASE Assay System (TR-FRET); type: biochemical; details: 5 nM ASK1 kinase, 1 uM STK3 peptide substrate, 100 uM ATP, 3 hours
Procedure: The ability (IC50) of compounds to inhibit ASK1 kinase activity was determined by HTRF® KinEASE™ Assay System.
ASK1 was purchased from Thermofisher (Catalogue # PV401.1), ATP was purchased from Sigma (Catalogue # A7699), HTRF® KinEASE™ Assay System was obtained from Cisbio (Bedford, Mass). ½ Area plate was purchased from Perkin Elmer (Catalogue # #6005560). HTRF® KinEASE™-STK is a generic method for measuring serine/threonine kinase activities using a time-resolved fluorescence resonance energy transfer (TR-FRET) immunoassay. The IC50 value for each compound was determined in the presence of compound (various concentration from 0 to 10 μM) and a fixed amount of ATP and peptide substrates. The test compound, luM STK3 peptide substrate, and 5 nM of ASK1 kinase are incubated with kinase reaction buffer containing 50 mM HEPES pH 7.5, 0.01% BRIJ-35, 10 mM MgCl2, and 1 mM EGTA for 30 minutes. 100 uM ATP is added to start kinase reaction and incubated for 3 hours. The STK3-antibody labeled with Eu^3+-Cryptate and 125 nM streptavidin-XL665 are mixed in a single addition with stop reagents provided by the Cisbio kit used to stop the kinase reaction. Fluorescence is detected using an Envision Multilabeled 2014 reader from PerkinElmer. The Fluorescence is measured at 615 nm (Cryptate) and 665 nm (XL665) and a ratio of 665 nm/615 nm is calculated for each well. The resulting TR-FRET is proportional to the phosphorylation level. Staurosporine was used as the positive control. IC50 was determined by XLfit 5.3.
By using above method, the inhibition of ASK1 was tested for the compound of formula (I). IC50 ranges are as follows: A<1 nM; 1 nM<B<10 nM; 10 nM<C<100 nM; 100 nM<D

ASK1, sequence (Q99683 whole entry): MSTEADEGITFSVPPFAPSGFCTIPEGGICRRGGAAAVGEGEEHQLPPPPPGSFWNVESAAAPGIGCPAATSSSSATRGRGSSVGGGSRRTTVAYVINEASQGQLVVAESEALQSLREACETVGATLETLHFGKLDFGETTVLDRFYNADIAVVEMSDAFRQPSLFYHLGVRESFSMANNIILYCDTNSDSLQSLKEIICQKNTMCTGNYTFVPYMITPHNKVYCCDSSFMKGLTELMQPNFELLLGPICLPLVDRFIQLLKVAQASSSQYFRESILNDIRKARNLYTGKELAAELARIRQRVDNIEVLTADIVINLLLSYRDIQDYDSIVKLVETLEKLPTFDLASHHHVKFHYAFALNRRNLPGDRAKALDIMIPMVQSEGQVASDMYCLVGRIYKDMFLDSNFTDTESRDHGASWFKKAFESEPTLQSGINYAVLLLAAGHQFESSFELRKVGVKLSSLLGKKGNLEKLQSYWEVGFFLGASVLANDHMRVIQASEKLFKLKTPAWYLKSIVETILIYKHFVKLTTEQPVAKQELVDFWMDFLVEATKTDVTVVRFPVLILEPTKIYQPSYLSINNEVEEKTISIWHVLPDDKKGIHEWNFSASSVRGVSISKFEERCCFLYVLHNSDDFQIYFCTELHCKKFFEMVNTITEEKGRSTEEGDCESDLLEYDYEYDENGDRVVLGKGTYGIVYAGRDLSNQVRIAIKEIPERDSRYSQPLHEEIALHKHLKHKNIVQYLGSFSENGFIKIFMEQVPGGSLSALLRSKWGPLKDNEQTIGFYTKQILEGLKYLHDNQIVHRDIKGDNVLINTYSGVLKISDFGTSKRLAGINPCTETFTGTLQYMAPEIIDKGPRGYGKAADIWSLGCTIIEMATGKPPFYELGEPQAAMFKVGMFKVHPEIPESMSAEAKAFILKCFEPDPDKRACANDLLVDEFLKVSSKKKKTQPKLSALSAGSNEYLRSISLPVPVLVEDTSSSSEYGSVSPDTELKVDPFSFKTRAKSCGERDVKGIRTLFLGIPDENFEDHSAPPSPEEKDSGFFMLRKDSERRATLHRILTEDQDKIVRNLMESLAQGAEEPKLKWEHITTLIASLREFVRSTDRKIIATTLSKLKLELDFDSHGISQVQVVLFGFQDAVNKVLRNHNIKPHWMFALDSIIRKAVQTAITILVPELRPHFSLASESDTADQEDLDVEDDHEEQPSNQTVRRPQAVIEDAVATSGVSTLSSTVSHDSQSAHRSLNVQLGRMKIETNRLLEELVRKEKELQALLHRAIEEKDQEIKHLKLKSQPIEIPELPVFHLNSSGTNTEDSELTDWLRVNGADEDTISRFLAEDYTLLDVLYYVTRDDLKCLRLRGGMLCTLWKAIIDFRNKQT

Structure (SMILES) | IC50 [nM]
CC(C)n1nnnc1-c1cccc(NC(=O)c2cc(-n3cnc(C4CC4)c3)c(C(F)F)cc2F)n1 [Example 31a, 5-(4-cyclopropyl-1H-imidazol-1-yl)-4-(difluoromethyl)-2-fluoro-N-(6-(1-isopropyl-1H-tetrazol-5-yl)pyridin-2-yl)benzamide] | 1 to 10
Cc1cc(F)c(C(=O)Nc2cccc(-c3nnnn3[C@H]3C[C@@H](O)C3)n2)cc1-n1cnc(C2CC2)c1 [Example 21a] | 1 to 10
CC(C)n1nnnc1-c1cccc(NC(=O)c2cc(-n3cnc(C4CC4)c3)c(N3CCCC3)cn2)n1 [Example 43a] | 1 to 10
CC(=O)OCC[C@@H](C)n1nnnc1-c1cccc(NC(=O)c2cc(-n3cnc(C4CC4)c3)c(C)cc2F)n1 [Example 23a] | 1 to 10
CC(C)n1nnnc1-c1cccc(NC(=O)c2cc(-n3cnc(C4CC4)c3)c(F)cn2)n1 [Example 39a] | 1 to 10
Cc1cnc(C(=O)Nc2cccc(-n3nnnc3C(C)C)n2)cc1-n1cnc(C(C)(C)C)c1 [Example 5b] | 1 to 10
Cc1cc(F)c(C(=O)Nc2cccc(-c3nnnn3[C@@H](C)CO)n2)cc1-n1cnc(C2CC2)c1 [Example 5a, (S)-5-(4-cyclopropyl-1H-imidazol-1-yl)-2-fluoro-N-(6-(1-(1-hydroxypropan-2-yl)-1H-tetrazol-5-yl)pyridin-2-yl)-4-methylbenzamide] | 1 to 10
Cc1cc(F)c(C(=O)Nc2cccc(-c3nnnn3C(C)C)n2)cc1-n1cnc(C(F)(F)F)c1 [Example 27a] | 10 to 100
Cc1cc(F)c(C(=O)Nc2cccc(-n3ccnc3C(C)C)n2)cc1-n1cnc(C2CC2)c1 [Example 3c, 5-(4-cyclopropyl-1H-imidazol-1-yl)-2-fluoro-N-(6-(2-isopropyl-1H-imidazol-1-yl)pyridin-2-yl)-4-methylbenzamide] | > 1000
CC(C)n1nnnc1-c1nc(NC(=O)c2cc(-n3cnc(C4CC4)c3)c(N3CCCC3)cn2)cs1 [Example 42a] | 1 to 10

Further lines, results first:

IC50 [nM] | Structure (SMILES)
1 to 10 | CC(C)n1nnnc1-c1nc(NC(=O)c2cc(-n3cnc(C4CC4)c3)c(C(F)F)cn2)cs1 [Example 56a]
1 to 10 | Cc1cnc(C(=O)Nc2cccc(-c3nnnn3C(C)C)n2)cc1-n1cnc(C(C)(C)C)c1 [Example 52a]
1 to 10 | CC(C)n1nnnc1-c1cccc(NC(=O)c2cc(-n3cnc(C4CC4)c3)c(N3CCOCC3)cn2)n1 [Example 46a]
1 to 10 | CC(C)n1nnnc1-c1nc(NC(=O)c2cc(-n3cnc(C4CC4)c3)c(C(F)(F)F)cn2)cs1 [Example 59a]
1 to 10 | C[C@H](CO)n1nnnc1-c1cccc(NC(=O)c2cc(-n3cnc(C4CC4)c3)c(C(F)F)cn2)n1 [Example 55a]
